Values of other authors as cited in patent US9017727B2, “Amino acid composition with improved dispersibility” (N.V. Nutricia, priority 2009, dated 2015).

Conditions: in water at 20 degrees Celsius

N[C@@H](CS)C(=O)O [Cysteine]
Solubility (at 20° C.) (g/100 ml): 16 g/100 ml

NC(=O)CC[C@H](N)C(=O)O [Glutamine]
Solubility (at 20° C.) (g/100 ml): 3.73 g/100 ml

C[C@H](N)C(=O)O [L-Alanine]
Solubility (at 20° C.) (g/100 ml): 15.8 g/100 ml

CC(=O)N[C@@H](CS)C(=O)O [N-acetyl cysteine]
Solubility (at 20° C.) (g/100 ml): 17 g/100 ml

N[C@@H](Cc1c[nH]cn1)C(=O)O [Histidine]
Solubility (at 20° C.) (g/100 ml): 3.84 g/100 ml

N[C@@H](Cc1c[nH]c2ccccc12)C(=O)O [Tryptophan]
Solubility (at 20° C.) (g/100 ml): 1.06 g/100 ml

CC[C@H](C)[C@H](N)C(=O)O [Isoleucine]
Solubility (at 20° C.) (g/100 ml): 4.02 g/100 ml

Cysteine HCL-anhydrous
Solubility (at 20° C.) (g/100 ml): 102 g/100 ml

CC(C)C[C@H](N)C(=O)O [Leucine]
Solubility (at 20° C.) (g/100 ml): 2.38 g/100 ml

N[C@@H](CSSC[C@H](N)C(=O)O)C(=O)O [Cystine]
Solubility (at 20° C.) (g/100 ml): 0.009 g/100 ml

N[C@@H](Cc1ccccc1)C(=O)O [Phenylalanine]
Solubility (at 20° C.) (g/100 ml): 2.74 g/100 ml

CSCC[C@H](N)C(=O)O [Methionine]
Solubility (at 20° C.) (g/100 ml): 4.8 g/100 ml

CC(C)[C@H](N)C(=O)O [Valine]
Solubility (at 20° C.) (g/100 ml): 5.75 g/100 ml
